Assay results published in ChEMBL document CHEMBL5500412, “Discovery of Highly Selective, Potent, Covalent, and Orally Bioavailable Factor XIIa Inhibitors for the Treatment of Thrombo-Inflammation” (J Med Chem, 2024).
Active and inactive are the calls of the source. No cut-off for these calls is given here.

Tests used:
[1] = tested on: Mus musculus; assay: Antiinflammatory activity in carrageenan-induced thrombosis in male BALB/c mouse model assessed as reduction in IL-6 level administered as oral dose by ELISA method; type: functional, organism-based; conditions: dose 10-30 mg/kg
[2] = tested on: Mus musculus; assay: Antiinflammatory activity in carrageenan-induced thrombosis in male BALB/c mouse model assessed as reduction in IL-1 beta level at 10 to 30 mg/kg, po by ELISA method; type: functional, organism-based; conditions: dose 10-30 mg/kg
[3] = MRT(0 to infinity) in BALB/c mouse at 5 mg/kg, po measured upto 24 hrs by LC-MS/MS analysis; type: ADME, organism-based; conditions: in vivo
[4] = Tmax in BALB/c mouse at 5 mg/kg, po measured upto 24 hrs by LC-MS/MS analysis; type: ADME, organism-based; conditions: in vivo
[5] = Half life in BALB/c mouse at 5 mg/kg, po measured upto 24 hrs by LC-MS/MS analysis; type: ADME, organism-based; conditions: in vivo
[6] = Tmax in BALB/c mouse at 1 mg/kg, iv measured upto 24 hrs by LC-MS/MS analysis; type: ADME, organism-based; conditions: in vivo
[7] = molecular target: T1, Coagulation factor XII (Homo sapiens) (UniProt P00748); assay: Inhibition of FXIIa (unknown origin) using H-D-Pro-Phe-Arg-pNA as substrate preincubated for 20 mins followed by 100 fold dilution upto 120 mins then substrate addition for 60 mins by jump dilution assay; conditions: time <= 200.0 min
T1 sequence (whole entry): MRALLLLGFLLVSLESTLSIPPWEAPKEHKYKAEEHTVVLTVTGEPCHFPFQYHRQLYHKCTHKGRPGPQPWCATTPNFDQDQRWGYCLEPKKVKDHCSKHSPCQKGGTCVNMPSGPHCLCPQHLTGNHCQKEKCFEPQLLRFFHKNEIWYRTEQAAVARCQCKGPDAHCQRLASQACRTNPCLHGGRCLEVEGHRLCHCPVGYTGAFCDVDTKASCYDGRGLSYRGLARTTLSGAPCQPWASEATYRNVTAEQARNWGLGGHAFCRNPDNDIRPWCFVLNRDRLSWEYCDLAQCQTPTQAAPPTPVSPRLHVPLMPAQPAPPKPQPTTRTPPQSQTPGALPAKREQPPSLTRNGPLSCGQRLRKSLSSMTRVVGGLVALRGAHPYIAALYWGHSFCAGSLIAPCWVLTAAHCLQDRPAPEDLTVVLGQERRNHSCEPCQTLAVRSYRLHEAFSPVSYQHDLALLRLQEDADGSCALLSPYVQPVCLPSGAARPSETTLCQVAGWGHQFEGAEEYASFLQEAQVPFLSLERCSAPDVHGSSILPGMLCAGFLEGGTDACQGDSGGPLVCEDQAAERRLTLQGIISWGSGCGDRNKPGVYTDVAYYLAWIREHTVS

| MRT inf [3] [h] | Tmax [4] [h] | half-life [5] [h] | Tmax [6] [h] | inhibition [7] | SMILES | Activity [1] | Activity [2] |
| --- | --- | --- | --- | --- | --- | --- | --- |
|  |  |  |  |  | CC(C)N1CCN(c2ccc(C(=O)n3nc(-c4ccccn4)nc3N)c3ccccc23)CC1 | Dose-Dependent Effect |  |
| 1.6 | 1 | 1.71 | 0.39 | inactive | CC(C)N1CCCN(c2ccc(C(=O)n3nc(-c4ccccn4)nc3N)c3ccccc23)CC1 |  | Active |
